What was measured:
Assay in all cases: relative viability (nuclei count vs DMSO), 5 days (fraction); higher = more cells survive
[1] = compound: C1CC(C1)(C(=O)O)C(=O)O.[NH2-].[NH2-].[Pt+2] [Carboplatin] + O=C(c1cc(Cc2n[nH]c(=O)c3ccccc23)ccc1F)N1CCN(C(=O)C2CC2)CC1 [Olaparib] (partner 8 µM)
Outline: (§1)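 Lung cancer cell lines were pin-tool dosed in 1536-well plates on the day after seeding, with either a lone drug or a fixed anchor-drug dose plus five library-drug doses (not always all listed) in √10 steps. Nuclei were counted on 4× images after 5 days. Relative viability is the ratio of treated-well to vehicle-well nuclei counts, with each value a median of duplicate plates.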

[2] = compound: CC[C@H](C)N1C=C(C2=C(C=C(C=C21)C3=CN=C(C=C3)N4CCNCC4)C(=O)NCC5=C(C=C(NC5=O)C)C)C [GSK126] + N=C(N)NC(=N)NCCc1ccccc1 [Phenformin] (partner 250 µM)
Outline: as §1

[3] = compound: CC[C@H](C)N1C=C(C2=C(C=C(C=C21)C3=CN=C(C=C3)N4CCNCC4)C(=O)NCC5=C(C=C(NC5=O)C)C)C [GSK126] + Nc1nc2[nH]cc(CCc3ccc(C(=O)N[C@@H](CCC(=O)O)C(=O)O)cc3)c2c(=O)[nH]1 [Pemetrexed] (partner 0.2 µM)
Outline: as §1

[4] = compound: CC[C@H](C)N1C=C(C2=C(C=C(C=C21)C3=CN=C(C=C3)N4CCNCC4)C(=O)NCC5=C(C=C(NC5=O)C)C)C [GSK126] + O=C(c1cc(Cc2n[nH]c(=O)c3ccccc23)ccc1F)N1CCN(C(=O)C2CC2)CC1 [Olaparib] (partner 8 µM)
Outline: as §1

Row | Cell Line | relative viability ([1]; first compound 0.08 µM) | relative viability ([1]; first compound 0.253 µM) | relative viability ([1]; first compound 0.8 µM) | relative viability ([1]; first compound 2.53 µM) | relative viability ([1]; first compound 8 µM) | relative viability ([2]; first compound 0.08 µM) | relative viability ([2]; first compound 0.253 µM) | relative viability ([2]; first compound 0.8 µM) | relative viability ([2]; first compound 2.53 µM) | relative viability ([2]; first compound 8 µM) | relative viability ([3]; first compound 0.08 µM) | relative viability ([3]; first compound 0.253 µM) | relative viability ([3]; first compound 0.8 µM) | relative viability ([3]; first compound 2.53 µM) | relative viability ([3]; first compound 8 µM) | relative viability ([4]; first compound 0.08 µM) | relative viability ([4]; first compound 0.253 µM) | relative viability ([4]; first compound 0.8 µM) | relative viability ([4]; first compound 2.53 µM) | relative viability ([4]; first compound 8 µM)
1 | NCI-H2023 | 0.473 | 0.445 | 0.415 | 0.231 | 0.135 | 0.445 | 0.383 | 0.373 | 0.377 | 0.278 | 0.251 | 0.231 | 0.224 | 0.268 | 0.13 | 0.489 | 0.496 | 0.446 | 0.467 | 0.382
2 | NCI-H1395 | 0.509 | 0.467 | 0.505 | 0.41 | 0.46 | 0.487 | 0.446 | 0.43 | 0.506 | 0.474 | 0.942 | 0.773 | 0.867 | 0.988 | 0.759 | 0.468 | 0.465 | 0.438 | 0.456 | 0.414
3 | NCI-H2347 | 0.55 | 0.568 | 0.57 | 0.546 | 0.498 | 0.488 | 0.444 | 0.499 | 0.352 | 0.409 | 0.422 | 0.396 | 0.448 | 0.441 | 0.461 | 0.562 | 0.524 | 0.529 | 0.581 | 0.62
4 | LXF-289 | 1.05 | 1.1 | 1.08 | 1.05 | 0.996 | 0.549 | 0.509 | 0.477 | 0.487 | 0.483 | 0.894 | 0.945 | 0.933 | 0.908 | 0.884 | 1.12 | 1.11 | 1.05 | 1.01 | 1.02
5 | EMC-BAC-2 | 0.483 | 0.484 | 0.447 | 0.461 | 0.385 | 0.606 | 0.528 | 0.505 | 0.483 | 0.482 | 0.421 | 0.46 | 0.46 | 0.419 | 0.376 | 0.512 | 0.436 | 0.502 | 0.436 | 0.47
6 | LC-2-ad | 0.699 | 0.7 | 0.666 | 0.675 | 0.522 | 0.627 | 0.634 | 0.583 | 0.56 | 0.642 | 0.257 | 0.265 | 0.278 | 0.281 | 0.253 | 0.703 | 0.698 | 0.67 | 0.712 | 0.357
7 | NCI-H647 | 0.631 | 0.543 | 0.53 | 0.431 | 0.222 | 0.595 | 0.45 | 0.448 | 0.344 | 0.508 | 0.236 | 0.197 | 0.188 | 0.163 | 0.19 | 0.742 | 0.438 | 0.57 | 0.714 | 0.56
8 | NCI-H1734 | 0.598 | 0.623 | 0.522 | 0.574 | 0.423 | 0.474 | 0.361 | 0.393 | 0.382 | 0.418 | 0.406 | 0.411 | 0.463 | 0.448 | 0.461 | 0.633 | 0.685 | 0.628 | 0.701 | 0.756
9 | LOU-NH91 | 0.955 | 0.973 | 0.873 | 0.831 | 0.844 | 0.785 | 0.755 | 0.692 | 0.662 | 0.639 | 0.399 | 0.35 | 0.376 | 0.362 | 0.423 | 0.938 | 0.942 | 0.879 | 0.956 | 0.887
10 | NCI-H1793 | 0.802 | 0.909 | 0.82 | 0.675 | 1.04 | 0.407 | 0.458 | 0.384 | 0.274 | 0.235 | 0.981 | 0.825 | 0.876 | 0.916 | 0.932 | 0.931 | 0.8 | 0.732 | 1.24 | 0.989
11 | NCI-H441 | 0.465 | 0.497 | 0.499 | 0.486 | 0.259 | 0.991 | 0.727 | 0.708 | 0.946 | 0.826 | 0.289 | 0.281 | 0.272 | 0.248 | 0.267 | 0.612 | 0.561 | 0.566 | 0.539 | 0.44
12 | RERF-LC-KJ | 1.03 | 0.866 | 0.884 | 0.657 | 0.416 | 0.484 | 0.417 | 0.396 | 0.4 | 0.396 | 0.462 | 0.465 | 0.443 | 0.462 | 0.461 | 0.935 | 0.979 | 1.04 | 0.826 | 0.83
13 | H3255 | 0.567 | 0.643 | 0.522 | 0.531 | 0.434 | 0.354 | 0.382 | 0.352 | 0.341 | 0.368 | 0.596 | 0.548 | 0.568 | 0.898 | 0.58 | 0.571 | 0.553 | 0.517 | 0.582 | 0.57
14 | A-427 | 0.733 | 0.695 | 0.88 | 0.648 | 0.712 | 0.362 | 0.34 | 0.311 | 0.346 | 0.258 | 1.03 | 0.937 | 1.03 | 1.08 | 0.991 | 0.704 | 0.724 | 0.701 | 0.765 | 0.837

From the supplement of paper PMC10307832
